Measurements from PubChem BioAssay (NCI).
Where “and” joins values, the source holds several entries; their conditions need not be identical. Equal values may be shown once.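 Growth conditions: 96-well plates. Treatment: test compound, 48 hours, 5 concentrations. Analysis: linear interpolation between bracketing concentrations; unreached endpoints set to highest concentration. The concentration for 50% growth inhibition is given as GI50. The concentration for full growth arrest is given as TGI.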

Legend:
Experiment in all cases: NCI anticancer screen, dose series, 48 h
NCI-H226 lung = tested on: NCI-H226 lung
U251 CNS = tested on: U251 CNS
UO-31 renal = tested on: UO-31 renal
DU-145 prostate = tested on: DU-145 prostate
NCI/ADR-RES ovarian = tested on: NCI/ADR-RES ovarian
SF-539 CNS = tested on: SF-539 CNS
HOP-62 NSCLC = tested on: HOP-62 NSCLC
TK-10 renal = tested on: TK-10 renal
K-562 leukemia = tested on: K-562 leukemia
HCT-15 colon = tested on: HCT-15 colon

SMILES	TGI (NCI-H226 lung)	TGI (U251 CNS)	TGI (UO-31 renal)	TGI (DU-145 prostate)	TGI (NCI/ADR-RES ovarian)	GI50 (SF-539 CNS)	TGI (SF-539 CNS)	GI50 (HOP-62 NSCLC)	TGI (HOP-62 NSCLC)	TGI (TK-10 renal)	GI50 (K-562 leukemia)	TGI (K-562 leukemia)	TGI (HCT-15 colon)	GI50 (NCI-H226 lung)	GI50 (U251 CNS)	GI50 (UO-31 renal)	GI50 (DU-145 prostate)	GI50 (NCI/ADR-RES ovarian)	GI50 (TK-10 renal)	GI50 (HCT-15 colon)
O=[N+]([O-])c1ccc(NC(=S)N/N=C(\c2ccccc2)c2ccccn2)cc1	2.98 µM and 3.03 µM	3 µM and 2.68 µM	2.79 µM	2.84 µM and 4.03 µM	5.12 µM	1410 nM	2.9 µM and 3.33 µM	1300 nM	2.98 µM and 1.62 µM	2.51 µM	0.00498 µM	2.41 µM and 3.82 µM	2.71 µM							
O=C(Nc1cccc([N+](=O)[O-])c1)c1cc2ccccc2cc1O	7.43 µM	9.27 µM	7.46 µM	> 49.6 µM	6.54 µM	1570 nM	8.84 µM	1190 nM	3.72 µM	9.46 µM	0.845 µM	11 µM	28.3 µM	1.87 µM	1.48 µM	1250 nM	3.09 µM	1.76 µM	4.03 µM	2.75 µM
CN(C)CCNc1c2c(c(NCCN(C)C)c3c(CO)c[nH]c13)C(=O)c1ccccc1C2=O	26.3 µM	22.5 µM	23.2 µM	12.7 µM	22.7 µM	1960 nM	4.72 µM	1020 nM	7.29 µM	7.55 µM	3.47 µM	> 100 µM	10.6 µM	7.37 µM	3.07 µM	3310 nM	2.17 µM	4.06 µM	2.53 µM	1.96 µM
O[C@H](CN1CC1)[C@@H](O)CN1CC1	26 µM	45.6 µM	13.1 µM	26.8 µM	53.1 µM	2580 nM	15.5 µM	3410 nM	47.2 µM	77.6 µM	6.84 µM	> 100 µM	88.9 µM	3.17 µM	5.78 µM	2650 nM	3.25 µM	2.8 µM	21.3 µM	10.6 µM
CN1N=Nc2c(C(F)(F)F)nn(-c3ccccc3)c2N(C)C1=O	> 100 µM	> 100 µM	> 100 µM	> 100 µM	> 100 µM	> 100000 nM	> 100 µM	> 100000 nM	> 100 µM	> 100 µM	> 56.4 µM	> 100 µM	> 100 µM	> 100 µM	> 100 µM	> 100000 nM	> 100 µM	> 100 µM	> 100 µM	> 100 µM
CN(C)c1ccc(N=C(C#N)c2nc(N)nc(N3CCN(c4ccccc4)CC3)n2)cc1	> 50 µM	> 50 µM	> 32.5 µM	> 28.1 µM	> 50 µM	18400 nM	> 50 µM	> 28600 nM	> 50 µM	> 50 µM	> 50 µM	> 50 µM	> 50 µM	22.3 µM	> 35.1 µM	> 18000 nM	11.6 µM	34.2 µM	> 30.6 µM	> 28.5 µM
CC(C)N(Cc1ccccc1)S(=O)(=O)c1n[nH]c(C(C)(C)C)n1	> 100 µM	> 100 µM	> 100 µM	> 100 µM	> 100 µM		> 100 µM		> 100 µM	> 100 µM		> 100 µM	> 100 µM							
